Patent US20260151372A1, “AZOTOMYCIN PRODRUGS WITH PREFERENTIAL TUMOR DELIVERY” (The Johns Hopkins University, priority 2022, published 2026)

Experiments:
Type in all cases: in vitro ADME
[1] = Plasma stability in human plasma; conditions: 37° C.
Experimental: (§1) In vitro stability studies were done using CES1KO mouse plasma, human plasma, CES1-KO mouse liver, and human liver microsomes as previously described. For tissue homogenate stability studies, washed tissue was diluted 10-fold in 0.1 M potassium phosphate buffer and homogenized using probe sonication. Crude homogenate was then aliquoted to 1 mL, and spiked with 10 mM stock of the analyte in DMSO to achieve a 10 μM final concentration. The plasma stability of the prodrugs was determined by spiking the analyte in 1 mL of plasma. The plasma and tissues were incubated in an orbital shaker at 37° C. Stability in human liver microsomes was assessed at a final prodrug concentration of 1 μM with 0.2 mg/mL protein for microsomes. All the stability studies were conducted at predetermined times (0 and 60 min), where 50 μL aliquots of the mixture in triplicate were removed and the reaction was quenched by addition of 5 times the volume of ice-cold methanol spiked with the internal standard (losartan: 0.5 μM). The samples were vortex-mixed for 30 s and centrifuged at 10,000 g for 10 min at 4° C. An amount of 50 μL of the supernatant was diluted with 50 μL of water and transferred to a 250 μL polypropylene vial sealed with a Teflon cap. Prodrug disappearance was monitored over time using liquid chromatography and mass spectrometry (LC-MS).
(§2) Analyses were performed on a Dionex ultra high-performance LC system coupled with Q Exactive Focus orbitrap mass spectrometer (Thermo Fisher Scientific Inc., Waltham MA). Separation was achieved using Agilent Eclipse Plus column (100×2.1 mm i.d., maintained at 35° C.) packed with a 1.8 μm C18 stationary phase. The mobile phase consisted of 0.1% formic acid in water and 0.1% formic acid in acetonitrile, […] were operated at a flow rate of 0.3 mL/min for 7 min using gradient elution. The mass spectrometer controlled by Xcalibur software 4.0.27.13 (Thermo Scientific) was operated with a HESI ion source in positive ionization mode. Metabolites were identified in the full-scan mode (from m/z 50 to 1600) by comparing […] samples

[2] = Plasma stability in CES1KO mouse plasma; conditions: 37° C., 60 min
Experimental: as §1, §2

[3] = Metabolic stability in CES1-KO mouse liver homogenate; conditions: tissue homogenate, 10 μM, 37° C.
Experimental: as §1, §2

[4] = Metabolic stability in human liver microsomes; conditions: 1 μM prodrug, 0.2 mg/mL protein
Experimental: as §1, §2

Plasma Stability (% Remaining at 60 min) Human Plasma [1] [%]	Plasma Stability (% Remaining at 60 min) CES1^−/− Mouse Plasma [2] [%]	Liver Stability (% Remaining at 60 min) CES1^−/− Mouse Liver [3] [%]	Liver Stability (% Remaining at 60 min) Human Liver Microsomes [4] [%]	SMILES
109 ± 1.00	99.3 ± 1.45	49.7 ± 0.333	95.8 ± 0.141	CN(C)CC(=O)N[C@@H](Cc1c[nH]c2ccccc12)C(=O)N[C@@H](CCC(=O)N[C@@H](CCC(=O)C=[N+]=[N-])C(=O)N[C@@H](CCC(=O)C=[N+]=[N-])C(N)=O)C(N)=O [Prodrug P8, (S)—N1-((S)-1-(((S)-1-Amino-6-diazo-1,5-dioxohexan-2-yl)amino)-6-diazo-1,5-dioxohexan-2-yl)-4-((S)-2-(2-(dimethylamino)acetamido)-3-(1H-indol-3-yl)propanamido)pentanediamide]
86.6 ± 2.69	107 ± 6.6	1.55 ± 0.77	109 ± 2.22	CCOC(=O)[C@H](CCC(=O)C=[N+]=[N-])NC(=O)[C@H](CCC(=O)C=[N+]=[N-])NC(=O)CC[C@H](NC(=O)CN(C)C)C(=O)O [Prodrug P13, N^5—((S)-6-diazo-1-(((S)-6-diazo-1-ethoxy-1,5-dioxohexan-2-yl)amino)-1,5-dioxohexan-2-yl)-N^2-(dimethylglycyl)-L-glutamine]
87.4 ± 1.61	4.17 ± 0.58	4.50 ± 1.58	91.0 ± 1.01	CC(C)C[C@H](N)C(=O)N[C@@H](CCC(=O)N[C@@H](CCC(=O)C=[N+]=[N-])C(=O)N[C@@H](CCC(=O)C=[N+]=[N-])C(=O)[O-])C(=O)[O-].[Na+].[Na+] [Prodrug P16, Sodium (S)-2-((S)-2-((S)-4-((S)-2-amino-4-methylpentanamido)-4-carboxylatobutanamido)-6-diazo-5-oxohexanamido)-6-diazo-5-oxohexanoate]
97.0 ± 4.11	85.1 ± 0.64	0.502 ± 0.103	74.1 ± 2.10	CC(=O)NCCCC[C@H](NC(=O)C12CC3CC(CC(C3)C1)C2)C(=O)N[C@@H](CCC(=O)N[C@@H](CCC(=O)C=[N+]=[N-])C(=O)N[C@@H](CCC(=O)C=[N+]=[N-])C(=O)OC(C)C)C(=O)OC(C)C [Prodrug P19, Isopropyl (2S,5S,10S,13S)-13-((3S,5S,7S)-adamantane-1-carboxamido)-2,5-bis(4-diazo-3-oxobutyl)-10-(isopropoxycarbonyl)-4,7,12,19-tetraoxo-3,6,11,18-tetraazaicosanoate]
97.3 ± 2.85	87.7 ± 8.51	4.33 ± 0.882	95.4 ± 0.595	[N-]=[N+]=CC(=O)CC[C@H](NC(=O)[C@H](CCC(=O)C=[N+]=[N-])NC(=O)CC[C@H](N)C(N)=O)C(N)=O [Prodrug P5, (S)-4-Amino-N1-((S)-1-(((S)-1-amino-6-diazo-1,5-dioxohexan-2-yl)amino)-6-diazo-1,5-dioxohexan-2-yl)pentanediamide]
85.9 ± 3.63	84.3 ± 10.5	0.320 ± 0.026	>100	CC(C)OC(=O)[C@H](CCC(=O)C=[N+]=[N-])NC(=O)[C@H](CCC(=O)C=[N+]=[N-])NC(=O)CC[C@H](N)C(=O)OC(C)C [Prodrug P9, Isopropyl (S)-2-((S)-2-((S)-4-amino-5-isopropoxy-5-oxopentanamido)-6-diazo-5-oxohexanamido)-6-diazo-5-oxohexanoate]
98.7 ± 2.67	98.0 ± 12.5	109 ± 10.0	95.3 ± 0.168	CN(C)CC(=O)N[C@@H](CCC(=O)N[C@@H](CCC(=O)C=[N+]=[N-])C(=O)N[C@@H](CCC(=O)C=[N+]=[N-])C(N)=O)C(N)=O [Prodrug P7, (S)—N1-((S)-1-(((S)-1-Amino-6-diazo-1,5-dioxohexan-2-yl)amino)-6-diazo-1,5-dioxohexan-2-yl)-4-(2-(dimethylamino)acetamido)pentanediamide]
93.7 ± 4.92	94.0 ± 2.47	0.964 ± 0.031	98.0 ± 5.36	CC(C)OC(=O)[C@H](CCC(=O)N[C@@H](CCC(=O)C=[N+]=[N-])C(=O)N[C@@H](CCC(=O)C=[N+]=[N-])C(=O)OC(C)C)NC(=O)CNC(=O)CN(C)C [Prodrug P17, Isopropyl (9S,14S,17S)-14,17-bis(4-diazo-3-oxobutyl)-9-(isopropoxycarbonyl)-2-methyl-4,7,12,15-tetraoxo-2,5,8,13,16-pentaazaoctadecan-18-oate]
90.5 ± 6.35	104 ± 3.67	90.4 ± 2.76	90.4 ± 4.10	[N-]=[N+]=CC(=O)CC[C@H](NC(=O)[C@H](CCC(=O)C=[N+]=[N-])NC(=O)CC[C@H](NC(=O)CN)C(=O)[O-])C(=O)[O-].[Na+].[Na+] [Prodrug P10, Sodium (S)-2-((S)-2-((S)-4-(2-aminoacetamido)-4-carboxylatobutanamido)-6-diazo-5-oxohexanamido)-6-diazo-5-oxohexanoate]
74.3 ± 1.20	105 ± 7.64	89.7 ± 0.88	23.7 ± 0.333	[N-]=[N+]=CC(=O)CC[C@H](NC(=O)[C@H](CCC(=O)C=[N+]=[N-])NC(=O)CC[C@H](N)C(=O)O)C(=O)O [Azotomycin]
105 ± 4.81	105 ± 5	0.11 ± 0.03	84.9 ± 2.30	CC(C)OC(=O)[C@H](CCC(=O)C=[N+]=[N-])NC(=O)[C@H](CCC(=O)C=[N+]=[N-])NC(=O)CC[C@H](NC(=O)[C@H](CCCNC(N)=O)NC(=O)[C@@H](N)C(C)C)C(=O)OC(C)C [Prodrug P18, Isopropyl (6S,9S,14S,17S)-1-amino-6-((S)-2-amino-3-methylbutanamido)-14,17-bis(4-diazo-3-oxobutyl)-9-(isopropoxycarbonyl)-1,7,12,15-tetraoxo-2,8,13,16-tetraazaoctadecan-18-oate]

SMILES	Plasma Stability (% Remaining at 60 min) Human Plasma [1] [%]	Plasma Stability (% Remaining at 60 min) CES1^−/− Mouse Plasma [2] [%]	Liver Stability (% Remaining at 60 min) CES1^−/− Mouse Liver [3] [%]	Liver Stability (% Remaining at 60 min) Human Liver Microsomes [4] [%]
CC(=O)N[C@@H](CCC(=O)N[C@@H](CCC(=O)C=[N+]=[N-])C(=O)N[C@@H](CCC(=O)C=[N+]=[N-])C(=O)OC(C)(C)C)C(=O)OC(C)(C)C [Prodrug P2]	110 ± 4.70	104 ± 2.31	100 ± 1.67	85.3 ± 7.88
CC(C)(C)OC(=O)[C@H](CCC(=O)C=[N+]=[N-])NC(=O)[C@H](CCC(=O)C=[N+]=[N-])NC(=O)CC[C@H](N)C(=O)OC(C)(C)C [Prodrug P1, tert-Butyl (S)-2-((S)-2-((S)-4-amino-5-(tert-butoxy)-5-oxopentanamido)-6-diazo-5-oxohexanamido)-6-diazo-5-oxohexanoate]	104 ± 1.00	101 ± 3.38	87.0 ± 8.51	105 ± 0.859
CN(C)CC(=O)N[C@@H](CCC(=O)N[C@@H](CCC(=O)C=[N+]=[N-])C(=O)N[C@@H](CCC(=O)C=[N+]=[N-])C(=O)[O-])C(=O)OC(C)(C)C.[Na+] [Prodrug P14, Sodium (6S,11S,14S)-6-(tert-butoxycarbonyl)-11,14-bis(4-diazo-3-oxobutyl)-2-methyl-4,9,12-trioxo-2,5,10,13-tetraazapentadecan-15-oate]	96.2 ± 3.21	111 ± 4.09	82.4 ± 4.03	103 ± 2.31
